In patent US20200016145A1, “TREATMENT OF CHRONIC TRAUMATIC ENCEPHALOPATHY” (CTEC LLC, priority 2018, published 2020):
“Also recorded” adds a separate entry of the source.

Assays:
Sprague Dawley rat [1] = experiment: Morris water maze after blast injury (cognitive performance); format: in vivo
Experimental: (§1) The administration of salubrinal prior to bTBI was also evaluated in an animal model. Use of the salubrinal ameliorated neuropsychiatric deficits in the form of impulsive-like behavior as measured by the elevated plus maze test/protocol, and spatial memory as measured by the Morris water maze test/protocol. This example assessed the successful targeting of ER stress after TBI. […] A Sprague Dawley rat was positioned in a protective tube to prevent injury to the peripheral organs, and an acceleration wave was generated and allowed to collide with the skull of the rat. The intensity of the injury was adjusted in a step-wise manner by decreasing or increasing the thickness of the membrane that exploded with pressurized nitrogen gas. An injury paradigm of 50 PSI was selected, which correlates with human concussion, that is the most common type of injury linked to CTE. In FIG. 4, the peak in plot D illustrates the 50 PSI pressure wave. The Sprague Dawley rats were given either one injury, or six injuries over a two-week period. Various time points of sacrifice were chosen to look at markers of ER stress and tauopathy. In this example, the effect of targeting (turning off) ER stress on improved behavior was studied by utilizing the injury models and standard protocols for Morris water maze and elevated plus maze. The Morris water maze detected deficits in cognitive performance whereas the elevated plus maze evaluated impulsive-like behavior. […] ANOVA was used for statistical analysis with *=p<0.05, **=p<0.01, ***=p<0.001. When drug was compared to injury group #=p<0.05, ##=p<0.01, ###=p<0.001.

ER stress = experiment: ER stress, tau kinase and apoptosis markers after blast-induced TBI (western blot, immunohistochemistry, PCR); format: in vivo, Sprague Dawley rat
Experimental: An animal model was used to evaluate TBI, and neuropathological specimens (donated by the Brain Injury Research Institute brain bank) were used to evaluate CTE. TBI was blast induced in the animal model. […] Salubrinal was administered to the animal model following the injury. The ER stress was modulated by the use of salubrinal. […] This example assessed the successful targeting of ER stress after TBI. […] A Sprague Dawley rat was positioned in a protective tube to prevent injury to the peripheral organs, and an acceleration wave was generated and allowed to collide with the skull of the rat. The intensity of the injury was adjusted in a step-wise manner by decreasing or increasing the thickness of the membrane that exploded with pressurized nitrogen gas. An injury paradigm of 50 PSI was selected, which correlates with human concussion, that is the most common type of injury linked to CTE. In FIG. 4, the peak in plot D illustrates the 50 PSI pressure wave. The Sprague Dawley rats were given either one injury, or six injuries over a two-week period. Various time points of sacrifice were chosen to look at markers of ER stress and tauopathy. Salubrinal was administered to the rats after injury to target ER stress. Salubrinal was administered by IP injection 30 minutes after injury using a dose of 1 mg/kg. […] Salubrinal-mediated CHOP reduction may be associated with preservation of the pro-form of Caspase-12 that when cleaved, has been associated with ER-mediated apoptosis or cell death. Reducing CHOP with salubrinal also may result in reduction of sustained oxidative stress and neuro-inflammation. LICOR western blot protocols, IHC world immunohistochemistry protocols, and Applied Biosystems PCR protocols were used for the assays. ANOVA was used for analysis with p<0.05 being statistically significant. *=p<0.05, **=p<0.01, ***=p<0.001. When the drug group was compared to the injury group #=p<0.05, ##=p<0.01, ###=p<0.001.

oxidative stress = experiment: Oxidative stress markers after blast injury; format: in vivo, Sprague Dawley rat
Text: This example assessed the successful targeting of ER stress after TBI. […] A Sprague Dawley rat was positioned in a protective tube to prevent injury to the peripheral organs, and an acceleration wave was generated and allowed to collide with the skull of the rat. The intensity of the injury was adjusted in a step-wise manner by decreasing or increasing the thickness of the membrane that exploded with pressurized nitrogen gas. An injury paradigm of 50 PSI was selected, which correlates with human concussion, that is the most common type of injury linked to CTE. In FIG. 4, the peak in plot D illustrates the 50 PSI pressure wave. The Sprague Dawley rats were given either one injury, or six injuries over a two-week period. Various time points of sacrifice were chosen to look at markers of ER stress and tauopathy. Salubrinal was administered to the rats after injury to target ER stress. Salubrinal was administered by IP injection 30 minutes after injury using a dose of 1 mg/kg. […] Salubrinal-mediated CHOP reduction may be associated with preservation of the pro-form of Caspase-12 that when cleaved, has been associated with ER-mediated apoptosis or cell death. Reducing CHOP with salubrinal also may result in reduction of sustained oxidative stress and neuro-inflammation. LICOR western blot protocols, IHC world immunohistochemistry protocols, and Applied Biosystems PCR protocols were used for the assays. ANOVA was used for analysis with p<0.05 being statistically significant. *=p<0.05, **=p<0.01, ***=p<0.001. When the drug group was compared to the injury group #=p<0.05, ##=p<0.01, ###=p<0.001. […] Measured components included carbonyls (plot A), superoxide (plot B), reactive oxygen species (ROS) (plot C), and NADPH oxidase 4 (NOX4) (plot D). As shown in A, B and […], administration of salubrinal (sTBI+SAL) reduced protein carbonyls, super-oxides, and total oxidative stress production, respectively.

neuroinflammation = experiment: Neuroinflammation markers after blast injury; format: in vivo, Sprague Dawley rat
Text: This example assessed the successful targeting of ER stress after TBI. […] A Sprague Dawley rat was positioned in a protective tube to prevent injury to the peripheral organs, and an acceleration wave was generated and allowed to collide with the skull of the rat. The intensity of the injury was adjusted in a step-wise manner by decreasing or increasing the thickness of the membrane that exploded with pressurized nitrogen gas. An injury paradigm of 50 PSI was selected, which correlates with human concussion, that is the most common type of injury linked to CTE. In FIG. 4, the peak in plot D illustrates the 50 PSI pressure wave. The Sprague Dawley rats were given either one injury, or six injuries over a two-week period. Various time points of sacrifice were chosen to look at markers of ER stress and tauopathy. Salubrinal was administered to the rats after injury to target ER stress. Salubrinal was administered by IP injection 30 minutes after injury using a dose of 1 mg/kg. […] Salubrinal-mediated CHOP reduction may be associated with preservation of the pro-form of Caspase-12 that when cleaved, has been associated with ER-mediated apoptosis or cell death. Reducing CHOP with salubrinal also may result in reduction of sustained oxidative stress and neuro-inflammation. LICOR western blot protocols, IHC world immunohistochemistry protocols, and Applied Biosystems PCR protocols were used for the assays. ANOVA was used for analysis with p<0.05 being statistically significant. *=p<0.05, **=p<0.01, ***=p<0.001. When the drug group was compared to the injury group #=p<0.05, ##=p<0.01, ###=p<0.001. […] Measured components included NF kappa B (plot A), inducible nitric oxide synthase (iNOS) (plot B), interleukin 1 beta (IL-1β) (plot C), and tumor necrosis factor alpha (TNFα) (plot D). As shown in plots A, C and D, salubrinal administration (sTBI+SAL) reduced pro-inflammatory markers NFκB, IL-1β and TNFα, respectively.

Sprague Dawley rat [2] = experiment: Elevated plus maze after blast injury (impulsive-like behavior); format: in vivo
Experimental: as §1

[3] = bTBI animal model, administered following the injury
[4] = post-blast administration (FIG. 6)

SMILES: CC/C=C\C/C=C\C/C=C\C/C=C\C/C=C\C/C=C\CCC(=O)O [DHA]
- cognitive learning, Morris water maze (Sprague Dawley rat [1]; after injury (FIG. 13 panel D)): improved
- retention of a learned event, probe trial (Sprague Dawley rat [1]; after injury (FIG. 13 panel E)): enhanced
- ER stress activator BiP (ER stress; three weeks following repetitive injury (FIG. 10 plot A)): inhibited
- tau kinase GSK3β (ER stress; three weeks following repetitive injury (FIG. 10 plot B)): inhibited

SMILES: O=C(/C=C/c1ccccc1)NC(NC(=S)Nc1cccc2cccnc12)C(Cl)(Cl)Cl (stereo not drawn) [salubrinal, 3-phenyl-N-[2,2,2-trichloro-1-[[(8-quinolinylamino)thioxomethyl]amino]ethyl]-2-propenamide]
- protein carbonyls (oxidative stress; 24 hours after injury (FIG. 7 plot A)): reduced
- super-oxides (oxidative stress; 24 hours after injury (FIG. 7 plot B)): reduced
- total oxidative stress production (oxidative stress; 24 hours after injury (FIG. 7 plot D)): reduced
- neuropsychiatric deficits: spatial memory, Morris water maze (Sprague Dawley rat [1]; administered prior to bTBI): ameliorated
- GSK3β activity (ER stress; 1 mg/kg IP 30 minutes after injury): reduced
- CHOP (marker of ER stress) (ER stress; 1 mg/kg IP 30 minutes after injury, 24 hours after a single blast injury (FIG. 5 plot C)): prevented the surge; also recorded: significantly reduced
- GADD34 (marker of ER stress) (ER stress; 1 mg/kg IP 30 minutes after injury, 24 hours after a single blast injury (FIG. 5 plot E)): inhibited; also recorded: significantly reduced
- ER stress (ER stress; [3]): modulated
- markers of neural degeneration and apoptosis (ER stress; [3]): reducing
- CHOP by immunohistochemistry (ER stress; [4]): significantly reduced
- cleaved Caspase 3 (pro-apoptotic marker) by immunohistochemistry (ER stress; [4]): reduced
- NFκB (pro-inflammatory marker) (neuroinflammation; 24 hours after injury (FIG. 8 plot A)): reduced
- IL-1β (pro-inflammatory marker) (neuroinflammation; 24 hours after injury (FIG. 8 plot C)): reduced
- TNFα (pro-inflammatory marker) (neuroinflammation; 24 hours after injury (FIG. 8 plot D)): reduced
- impulsive-like behavior, time spent in the open arm of the elevated plus maze (Sprague Dawley rat [2]; administered after injury, 72 hours after the repeat injury (FIG. 12)): reduced
- impulsive-like behavior, time in the open arm of the elevated plus maze (Sprague Dawley rat [2]; administered after injury, seven days after a single injury (FIG. 11)): reduced
- neuropsychiatric deficits: impulsive-like behavior, elevated plus maze (Sprague Dawley rat [2]; administered prior to bTBI): ameliorated
